Where “and” joins values, the source holds several entries; their conditions need not be identical. Equal values may be shown once. Read-outs that look alike come from different tables or passages of the source. Marks after values point to notes of the source that are not given here.
What was measured:
[1] = predicted values from EPA Chemistry Dashboard; cited from earlier work
[2] = cited from earlier work; for published half-lives: biological half-lives quoted in abstract
[3] = Serum PFAS measurement by LC-HRMS, GenX Exposure Study participants; conditions: human, in vivo
[4] = both, human, in vivo
[5] = experimental values from EPA Chemistry Dashboard; cited from earlier work
[6] = weighted average, ref Zhang et al. 16
[7] = literature serum half-life, ref Li et al. 19
[8] = literature serum half-life, ref Li et al. 12

**Q.** What does the source list for `O=C(O)C(F)(OC(F)(F)C(F)(F)C(F)(F)F)C(F)(F)F` (stereo not shown) [GenX, hexafluoropropylene oxide dimer acid]?
**A.** logKow [1]: 5.13^a; half-life ([2]; in workers, ECHA estimate): 81 h; half-life ([2]; values from ECHA report): 3.375^f days and 3.38^e days

**Q.** Which results are given for `O=S(=O)(O)C(F)(F)C(F)(F)OC(F)C(F)(F)F` (stereo not shown) [NVHOS, 1,1,2,2-tetrafluoro-2-(1,2,2,2-tetrafluoroethoxy)ethanesulfonic acid]?
**A.** concentration at 5 months [3]: 1.14 ng/mL; logKow [1]: 2.58^a

**Q.** Which concentration at 5 months [3] does the source give for `O=C(O)C(F)(F)OC(F)(F)OC(F)(F)OC(F)(F)F` [PFO3OA, perfluoro-3,5,7-trioxaoctanoic acid] here?
**A.** Its concentration at 5 months is 1.02 ng/mL.

**Q.** What about the logKow [1] of the same compound?
**A.** Its logKow is 6.07^a.

**Q.** For `O=C(O)C(F)(F)OC(F)(F)OC(F)(F)OC(F)(F)OC(F)(F)F` [PFO4DA, perfluoro-3,5,7,9-tetraoxadecanoic acid], which concentration at 5 months [3] is on record?
**A.** Its concentration at 5 months is 5.6 ng/mL.

**Q.** And the concentration at 11 months [3]?
**A.** The concentration at 11 months was 1.16 ng/mL.

**Q.** And the “effect of age on concentration” value [4]?
**A.** The value was 0.0129 ng/mL/year.

**Q.** What about the “effect of gender concentration in males” value [4] of the same compound?
**A.** Its value is 0.376 ng/mL.

**Q.** And the logKow [1]?
**A.** Its logKow is 8.53^a.

**Q.** Which results are given for `O=C(O)C(F)(F)C(F)(F)C(F)(F)C(F)(F)C(F)(F)C(F)(F)C(F)(F)C(F)(F)C(F)(F)F` [PFDA]?
**A.** logKow [5]: 4.15^b; half-life [2, 6]: 3743^i days

**Q.** Which results are given for `O=C(O)C(F)(F)C(F)(F)C(F)(F)C(F)(F)C(F)(F)C(F)(F)F` [PFHpA, perfluoroheptanoic acid]?
**A.** logKow [5]: 2.05^b; published half-lives [2]: 30 to 60 days; half-life [2, 6]: 464^i days

**Q.** For `O=C(O)C(F)(F)OC(F)(F)OC(F)(F)OC(F)(F)OC(F)(F)OC(F)(F)F` [PFO5DoA, perfluoro-3,5,7,9,11-pentaoxadodecanoic acid], which concentration at 5 months [3] is on record?
**A.** Its concentration at 5 months is 12.4 ng/mL.

**Q.** What about the concentration at 11 months [3] of the same compound?
**A.** Its concentration at 11 months is 8.91 ng/mL.

**Q.** What about the “effect of age on concentration” value [4] of the same compound?
**A.** The value was 0.0160 ^* ng/mL/year.

**Q.** What about the “effect of gender concentration in males” value [4] of the same compound?
**A.** Its value is 0.298 ng/mL.

**Q.** Which results are given for `O=S(=O)(O)C(F)(F)C(F)(F)C(F)(F)C(F)(F)C(F)(F)C(F)(F)F` [PFHxS, perfluorohexanesulfonic acid]?
**A.** logKow [1]: 3.48^a; half-life [2, 7]: 1661^e days

**Q.** With `O=C(O)C(F)(F)C(F)(F)C(F)(F)C(F)(F)C(F)(F)C(F)(F)C(F)(F)F` [PFOA, perfluorooctanoic acid] as the compound, how does the logKow [5] read?
**A.** The logKow was 3.1^b.

**Q.** And the published half-lives [2]?
**A.** The published half-lives was 800 to 1200 days.

**Q.** What about the half-life [2, 8] of the same compound?
**A.** Its half-life is 902^c days.

**Q.** And the half-life [2, 7]?
**A.** The half-life was 902^e days.

**Q.** Which results are given for `O=C(O)C(F)(F)C(F)(F)C(F)(F)C(F)(F)C(F)(F)F` [PFHxA, perfluorohexanoic acid]?
**A.** logKow [1]: 2.8^a; published half-lives [2]: 30 to 60 days; half-life ([2]; ref Russel et al. 52): 32^g days

**Q.** For `O=C(O)C(F)(F)C(F)(F)C(F)(F)C(F)(F)C(F)(F)C(F)(F)C(F)(F)C(F)(F)C(F)(F)C(F)(F)F` [PFUnA], which logKow [5] is on record?
**A.** Its logKow is 4.00^b.

**Q.** What about the half-life [2, 6] of the same compound?
**A.** The half-life was 3743^i days.

**Q.** With `O=S(=O)(O)C(F)(F)C(F)(F)C(F)(F)C(F)(F)F` [PFBS, perfluorobutanesulfonic acid] as the compound, how does the logKow [5] read?
**A.** Its logKow is 2.76^b.

**Q.** What about the half-life ([2]; ref Olsen et al. 54) of the same compound?
**A.** The half-life was 26^h days.

**Q.** With `O=S(=O)(O)C(F)(F)C(F)(F)C(F)(F)C(F)(F)C(F)(F)C(F)(F)C(F)(F)F` [PFHpS] as the compound, how does the logKow [1] read?
**A.** Its logKow is 4.85^a.

**Q.** What about the half-life [2, 7] of the same compound?
**A.** Its half-life is 533^e days.

**Q.** Which logKow [1] does the source give for `O=S(=O)(O)C(F)(F)C(F)(F)C(F)(F)C(F)(F)C(F)(F)F` [PFPeS] here?
**A.** Its logKow is 3.38^a.

**Q.** And the half-life [2, 7]?
**A.** The half-life was 343^e days.

**Q.** Which logKow [5] does the source give for `O=S(=O)(O)C(F)(F)C(F)(F)C(F)(F)C(F)(F)C(F)(F)C(F)(F)C(F)(F)C(F)(F)F` [PFOS, perfluorooctanesulfonic acid] here?
**A.** The logKow was 5.61^b.

**Q.** What about the published half-lives [2] of the same compound?
**A.** Its published half-lives is 800 to 1200 days.

**Q.** What about the half-life [2, 8] of the same compound?
**A.** Its half-life is 1241^d days.

**Q.** Which logKow [5] does the source give for `O=C(O)C(F)(F)C(F)(F)C(F)(F)C(F)(F)C(F)(F)C(F)(F)C(F)(F)C(F)(F)F` [PFNA, perfluorononanoic acid] here?
**A.** Its logKow is 3.54^b.

**Q.** And the half-life [2, 6]?
**A.** The half-life was 1417^i days.

Source: publication PMC10790670 (Environmental science & technology, 2023)
